This passage reports RP-LC retention time results from the METLIN SMRT retention time set (Domingo-Almenara et al. 2019).

The nature of the data set: gradient 5% acetonitrile 3 min, to 50% in 2 min, to 85% in 15 min, held 3 min, 100 µL/min. As to conditions: column: Zorbax Extend-C18 2.1 x 50 mm; eluents: water / acetonitrile, 0.1% formic acid. The method in brief: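 The mobile phases were water and acetonitrile, each with 0.1% formic acid, pumped at 100 μL/min through a Zorbax Extend-C18 column (2.1 × 50 mm, 1.8 μm). Pure standards were injected as mixtures of ~100 molecules and detected by a quadrupole time-of-flight mass spectrometer in positive and negative ionization mode. Retention time came from computationally picked adduct peaks, each inspected by hand.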
For `CCCCc1ccc(NC(=O)CSc2ccc(N3CCCC(C(=O)NCCC)C3)nn2)cc1` (centres undefined), the RP-LC retention time was 860 s.

`CCCCNC(=O)c1nc(Nc2ccc(C)cc2)c2ccccc2n1` came in with an RP-LC retention time of 831 s.

Consider `Cc1noc2nc(C)n(CC(=O)NCc3ccc(F)cc3)c(=O)c12`, for which the RP-LC retention time is 735 s.

The compound `COCCN1CCn2cc(S(=O)(=O)Nc3ccc(C)cc3F)cc2C1=O` registered an RP-LC retention time of 740 s.

As to `O=C(NCCCN1CCCCCC1)C(c1ccccc1)C1CCCCC1` (centres undefined), the RP-LC retention time was 875 s.

`COc1ccc(NC(=O)N2CCCN(C3CCN(Cc4ccc(F)cc4)C3=O)CC2)cc1` (centres undefined) yielded an RP-LC retention time of 570 s.

In turn, `CCOc1ccc(-c2ccc(=O)n(CCc3nc(-c4cc(OC)cc(OC)c4)no3)n2)cc1` yielded an RP-LC retention time of 1020 s.

`Cc1ccc(CNC(=O)C2CCCN(c3ncc(-c4cccc(F)c4)cn3)C2)o1` (centres undefined): the RP-LC retention time came to 851 s.

As to `CCC(C)NS(=O)(=O)c1cccc(-c2nc(-c3ccccc3)no2)c1` (centres undefined), the RP-LC retention time amounted to 786 s.

With `O=C(NCC1(N2CCOCC2)CCOC1)Nc1cc(F)ccc1F` (centres undefined), the RP-LC retention time came out at 592 s.

In turn, `COc1ccc(-c2noc(C3CCCN3C(=O)c3ccc(C)c(F)c3)n2)cc1` (centres undefined) displayed an RP-LC retention time of 1040 s.

The compound `COCCn1cnc2c(-c3ccccc3)cn(CC(=O)NCc3ccc4c(c3)OCO4)c2c1=O` came in with an RP-LC retention time of 828 s.

With `CCOC(=O)c1cccc(Nc2c(-c3ccc(Cl)cc3)nc3cnccn23)c1`, the RP-LC retention time was found to be 992 s.

`Cc1ccc(S(=O)(=O)N2CCC(CCNC(=O)NCC(C)C)CC2)cc1`: the RP-LC retention time came out at 877 s.

As to `O=C1CCCC(=O)C1C(=O)c1ccc(C(F)(F)F)cc1[N+](=O)[O-]`, the RP-LC retention time is 1070 s.

In turn, `COc1ccc(-c2c(C)noc2NC(C)=O)cc1S(=O)(=O)Nc1cccc(C(F)(F)F)c1` returned an RP-LC retention time of 821 s.

With `Cc1ccc(S(=O)(=O)NC2CCN(C(=O)Cc3c[nH]c4ccccc34)CC2)cc1`, the RP-LC retention time came out at 775 s.

`CC(C)CN(CC(C)C)C(=O)C1CCN(S(=O)(=O)c2ccc3c(c2)CCCC(=O)N3)CC1` showed an RP-LC retention time of 851 s.

`CO[C@@H]1C(O)[C@H](O[C@H]2CC[C@@]3(C=O)[C@H](CC[C@@H]4[C@@H]3CC[C@]3(C)[C@@H](C5=CC(=O)OC5)CC[C@]43O)C2)OC(C)[C@@H]1O` (some centres undefined) showed an RP-LC retention time of 772 s.

In turn, `CCOC(=O)c1nc(NCCc2ccccc2)c2ccccc2n1` returned an RP-LC retention time of 769 s.

Compound `Cc1noc(C2(NS(=O)(=O)c3ccc(C#N)cc3)CCCCC2)n1` yielded an RP-LC retention time of 773 s.

In the case of `COc1ccc(CC(C)(O)CNC(=O)c2cc(Br)ccc2Cl)cc1` (centres undefined), the RP-LC retention time came out at 822 s.

Compound `CC12CC(Br)(Br)C(=O)C3C1CCCC32` gave an RP-LC retention time of 1100 s.

In turn, `COc1cc(OC)c(NC(=O)Cn2c(=O)n(-c3cccc(C)c3)c(=O)c3c2cc(C)n3C)cc1Cl` gave an RP-LC retention time of 871 s.

As to `Cc1ccc(NC(=O)Cn2c(C(C)C)nc3c(c2=O)CCN(Cc2ccccc2)C3)cc1F`, the RP-LC retention time stood at 740 s.

For the compound `O=C(Cn1nc2c3cc(F)ccc3ncn2c1=O)Nc1ccc(Cl)cc1`, the RP-LC retention time was 744 s.

The compound `CNC(=O)C1CN(C(=O)c2ccc(OC)cc2)CC12CCCC2` (centres undefined) showed an RP-LC retention time of 570 s.

For the compound `Cc1noc(C)c1CNC(=O)c1ccc(OC(F)(F)F)cc1`, the RP-LC retention time was 825 s.

As for `Cc1nnc(N2CCCC(C(=O)NC(C)c3ccccc3)C2)c2nn(-c3ccc(Cl)cc3)c(C)c12` (centres undefined), the RP-LC retention time worked out at 795 s.

In the case of `C=CCn1c(NCc2cccc(Br)c2)nc2ccccc21`, the RP-LC retention time came to 703 s.

`CCCN1C(=O)COc2ccc(-c3noc(COc4ccc(Cl)cc4C)n3)cc21`: the RP-LC retention time was 1260 s.

The compound `Cc1ccc(C(=O)NCCN2CCCC2)cc1NC(=O)C1=CSCCO1` registered an RP-LC retention time of 592 s.

`CC(C)C(=O)c1cn(CC(=O)COc2ccc(Oc3ccccc3)cc2)c2ccc(C(=O)O)cc12` showed an RP-LC retention time of 1140 s.

On to `Cc1nccn1Cc1nc(-c2ccc(F)c(Br)c2)no1`, for which the RP-LC retention time worked out at 668 s.

As for `CS(=O)(=O)c1ccc(CC(=O)N2CC(Cc3nncn3CC3CC3)C2)cc1`, the RP-LC retention time came to 592 s.

For `O=C(NC1CCCCCC1)C1CCN(S(=O)(=O)c2ccc(-c3noc(C4CC4)n3)cc2)CC1`, the RP-LC retention time worked out at 836 s.

With `Cc1cc2nn(CC(=O)Nc3ccc(F)cc3F)c(=O)n2c(Nc2ccc(F)c(C)c2)n1`, the RP-LC retention time was determined as 1060 s.

`O=C(CSc1ccc2nnc(-c3cccs3)n2n1)NCc1ccc(F)cc1`: the RP-LC retention time worked out at 655 s.

As to `CCCn1c(C)cnc1C1CN(S(=O)(=O)c2ccc(F)c(Cl)c2)C1`, the RP-LC retention time was determined as 706 s.

As for `O=C(Nc1ccc(F)cc1)c1c(O)c2cccnc2n(-c2cccc(F)c2)c1=O`, the RP-LC retention time was 1220 s.

The compound `Cc1cc(N2CCC(C)CC2)n2nc(-c3ccc(Cl)cc3)nc2n1` displayed an RP-LC retention time of 1170 s.

`Cc1ccc(-c2nc(-c3ccc4nnn(C)c4c3)no2)c(C)c1` returned an RP-LC retention time of 1170 s.

`COc1cccc(-n2c(=O)c(C(=O)Nc3ccc(Cl)cc3)c(O)c3cccnc32)c1` showed an RP-LC retention time of 1340 s.

As to `COCCNC(=O)CN1C(=O)C2CCCCN2c2ccc(C(=O)N3CCCCC3)cc21` (centres undefined), the RP-LC retention time came out at 696 s.

The compound `O=C(NC1CCCCCC1)C1CCN(C(=O)c2ncn3c2COC(c2ccc(Cl)cc2)C3)CC1` (centres undefined) displayed an RP-LC retention time of 900 s.

With `O=C(Cn1nc2nc(N3CCCC3)ccn2c1=O)Nc1ccc2c(c1)OCO2`, the RP-LC retention time worked out at 647 s.

Compound `CCOCC(=O)N1CCCN(C2=NS(=O)(=O)C(c3ccc(Cl)cc3)=C2C)CC1` gave an RP-LC retention time of 761 s.

`CCc1nc(-c2ccc(C(=O)NC)cc2)no1` gave an RP-LC retention time of 690 s.

The compound `O=C(c1cccnn1)N1C[C@@H](COCC2CC2)[C@H](c2ccncc2)C1` gave an RP-LC retention time of 563 s.

Compound `Cc1ccc(-c2cn3cccnc3n2)cc1NC(=O)CC1CCCCC1` yielded an RP-LC retention time of 720 s.

`COc1ccccc1CNC(=O)CSc1ccc(-c2ccccn2)nn1` displayed an RP-LC retention time of 713 s.

Turning to `Cn1nc(-c2ccccc2)c2ccccc2c1=O`, the RP-LC retention time was determined as 799 s.

For `O=C(NC1CCN(c2cc(-c3cccnc3)[nH]n2)CC1)C1CCCCC1`, the RP-LC retention time worked out at 573 s.

In turn, `O=C(NCc1cccs1)C1CCCN(c2nnc3ccc(C(F)(F)F)cn23)C1` (centres undefined) gave an RP-LC retention time of 668 s.

The compound `COC(=O)c1ccc2c(=O)n(CCc3ccccc3)c(N3CCC(C(N)=O)CC3)nc2c1` returned an RP-LC retention time of 774 s.

As for `COCCCNC(=O)C1c2cc(OC)c(OC)cc2C(=O)N(C)C1c1cccs1` (centres undefined), the RP-LC retention time amounted to 676 s.

`CCN(CCCc1ccccc1)CCCc1ccccc1` gave an RP-LC retention time of 874 s.

Take `COc1ccccc1CNC(=O)C1CCCN(c2cnc3nc(C)c(C)nc3c2)C1` (centres undefined): the RP-LC retention time is 727 s.

In turn, `COc1ccc(C(=O)Nc2cnc(N3CCOCC3)nc2)cc1` yielded an RP-LC retention time of 618 s.

In the case of `O=C(NCC1CCCCC1)C1CCN(c2nnc3ccccn23)CC1`, the RP-LC retention time stood at 628 s.

Compound `Cc1cccc(C(=O)N2CCC3(CC2)NC(=O)c2cc(F)ccc2N3C)c1` yielded an RP-LC retention time of 779 s.

With `CC(C)(C)c1cc(NCc2ccccn2)n2ncc(-c3ccc(Cl)cc3)c2n1`, the RP-LC retention time was 841 s.

As to `O=C(Nc1c(-c2cccc(F)c2)nc2sc(N3CCCCC3)nn12)C1CC1`, the RP-LC retention time turned out to be 897 s.

On to `Cc1cc(C)n(-c2nc(C)c(C(=O)N3CCc4ccccc4C3)s2)n1`, for which the RP-LC retention time stood at 1090 s.

`Cc1cc(C)cc(N2C=NS(=O)(=O)c3cccnc32)c1` displayed an RP-LC retention time of 837 s.

Regarding `CCOc1ccccc1N1CCN(C(=O)CN2CCN(Cc3ccc(F)cc3)C2=O)CC1`, the RP-LC retention time is 833 s.

Consider `O=C(Nc1ccccc1F)Nc1c(-c2ccccc2)nc2ccccn12`, for which the RP-LC retention time was 666 s.

Consider `CCCOc1ccc(S(=O)(=O)NCC2CCN(C(=O)c3ccccc3F)CC2)cc1C`, for which the RP-LC retention time worked out at 598 s.

On to `COc1cccc(S(=O)(=O)N2CCC(c3noc(-c4cccnc4)n3)C2)c1` (centres undefined), for which the RP-LC retention time was 846 s.

Consider `O=C(c1cn(-c2cc(Nc3ccccc3)ncn2)cn1)N1CCN(c2ncccn2)CC1`, for which the RP-LC retention time was found to be 749 s.

For the compound `Cc1nc2cc(-c3noc(-c4cccc(C#N)c4)n3)ccc2o1`, the RP-LC retention time is 977 s.

`Cc1cc(=O)n(CC(=O)Nc2cccc(C#N)c2)c(-c2ccc(F)cc2)n1` registered an RP-LC retention time of 995 s.

Consider `CCOc1ccc(NC(=O)c2cc(S(=O)(=O)N3CCC(C)CC3)cn2C)cc1`, for which the RP-LC retention time is 1070 s.

`O=C(NCC1(c2cccs2)CCOCC1)c1nc2ccccc2s1` gave an RP-LC retention time of 596 s.

Regarding `CCOc1ccc(CNC(=O)COc2nc(C)nc3oc(C)c(C)c23)cc1`, the RP-LC retention time was 892 s.

Compound `Cc1ccc(S(=O)(=O)N2CCCC(CCC(=O)NC3CCCCC3)C2)cc1` (centres undefined) registered an RP-LC retention time of 956 s.

For `O=C(N[C@H]1C[C@@H]2C[C@H]1N(C(=O)Cc1cccs1)C2)c1ccccc1`, the RP-LC retention time came out at 746 s.

In turn, `Cn1c(CN2CCN(C(=O)c3cc4ccccc4o3)CC2)nc2ccccc21` displayed an RP-LC retention time of 580 s.

In turn, `Cc1ccc(C(=O)NCc2nn(C)c3ccccc23)c(C)c1` displayed an RP-LC retention time of 857 s.
